Test results taken from PMC5569017, “Development of a novel immunoassay to detect interactions with the transactivation domain of p53: application to screening of new drugs” (Scientific Reports, 2017).
Read-outs that look alike come from different tables or passages of the source.

Legend:
p53/MDM2 interaction = conditions: cited from earlier work
p53-MDM2 interaction = biological target: T1, p53-MDM2 interaction (Homo sapiens, UniProt Q00987); test: AlphaLISA inhibitor screening assay, p53-MDM2 (cellular extracts with p53-His and MDM2-GST); format: biochemical; conditions: 33.3 μg/well MDM2-GST extract, Fig. 4; for concentration above which the AlphaLISA signal reached a plateau: dose-response, 1:10 serial dilutions
T1 construct: made in house; host or cells: MDM2-GST: Escherichia coli BL21 (DE3), crude extract; p53-His: HEK293T cells transfected with pEnter-p53, crude lysate
T1 sequence (Q00987 whole entry): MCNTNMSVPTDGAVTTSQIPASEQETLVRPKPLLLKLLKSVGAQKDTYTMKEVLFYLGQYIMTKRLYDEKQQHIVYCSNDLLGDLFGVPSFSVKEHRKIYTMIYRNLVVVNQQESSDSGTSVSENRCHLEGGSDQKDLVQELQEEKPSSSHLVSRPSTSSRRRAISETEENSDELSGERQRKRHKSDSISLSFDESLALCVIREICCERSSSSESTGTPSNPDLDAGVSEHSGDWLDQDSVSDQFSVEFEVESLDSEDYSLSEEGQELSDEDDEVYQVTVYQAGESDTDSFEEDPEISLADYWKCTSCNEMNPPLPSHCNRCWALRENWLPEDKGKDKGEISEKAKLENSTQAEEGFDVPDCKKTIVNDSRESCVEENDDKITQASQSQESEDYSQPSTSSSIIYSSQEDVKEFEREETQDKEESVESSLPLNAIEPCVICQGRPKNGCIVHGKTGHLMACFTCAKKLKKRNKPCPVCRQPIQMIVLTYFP

MDM2 = biological target: MDM2; design: method as in PMID 27764791; conditions: read-out: Ki, MDM2 antagonist; cited from earlier work

In the case of `CC(C)(C)C[C@@H]1N[C@@H](C(=O)N[C@H]2CC[C@H](O)CC2)[C@H](c2cccc(Cl)c2F)[C@]12C(=O)Nc1cc(Cl)ccc12` [MI-773], the “concentration above which the AlphaLISA signal reached a plateau” value (p53-MDM2 interaction) is given as “exceeded 1 μΜ” and the Ki (MDM2) is given as 0.88 nM.
With `CCOc1cc(C(C)(C)C)ccc1C1=N[C@@](C)(c2ccc(Cl)cc2)[C@@](C)(c2ccc(Cl)cc2)N1C(=O)N1CCN(CCCS(C)(=O)=O)CC1` [RG-7112] the “concentration above which the AlphaLISA signal reached a plateau” value (p53-MDM2 interaction) was “exceeded 1 μΜ”.
In the case of `COc1cc(C(=O)O)ccc1NC(=O)[C@@H]1N[C@@H](CC(C)(C)C)[C@](C#N)(c2ccc(Cl)cc2F)[C@H]1c1cccc(Cl)c1F` [Idasanutlin], the IC50 (p53/MDM2 interaction; read-out: IC50, p53-MDM2 inhibitor) is listed as 6 nM and the “course of AlphaLISA response signal with increasing inhibitor dose” value (p53-MDM2 interaction; serial dilutions starting with 20 μM) is listed as “continued to rise rapidly”.
